From publication PMC13516501 (Pharmaceuticals, 2026) come the findings set out here.

Each structure is given as a SMILES string.

The data set can be described thus: Single-dose, randomized, two-way crossover bioequivalence/pharmacokinetic studies A-D under fed conditions (plasma LC-MS/MS, NCA). As to conditions: reference formulation, Study C, metformin 850 mg, empagliflozin […] mg, n 35.

Procedure: To ensure standardization, all subjects underwent at least 10 h of overnight pre-dose fasting on the study day. Participants then received a standardized high-fat, high-calorie breakfast (approximately 800 kcal). Dosing was administered 30 min after the start of this meal, followed by the intake of a 10% glucose solution (250 mL). The glucose solution was administered as a prophylactic measure to reduce the risk of hypoglycemia. It was not intended to simulate fed-state caloric intake beyond the standardized meal, in accordance with institutional clinical practice.
Each study period included a one-day treatment followed by a 14-day washout period. […] All adverse events, including duration, severity, causality, and outcomes, were strictly monitored and recorded by the principal investigator and medical staff throughout the study.
Promptly after collection, the samples were centrifuged at 3500 rpm for 10 min at 4 °C to separate the plasma. The harvested plasma was then transferred into appropriately labeled cryovials and immediately cryopreserved at −70 ± 15 °C until bioanalytical quantification. […]
The primary pharmacokinetic parameters evaluated to establish bioequivalence were the maximum observed plasma concentration (Cmax) and the area under the concentration–time curve from time zero to the last measurable concentration (AUC0-t). […]

As to `CN(C)C(=N)N=C(N)N` [Metformin], the “AUC0-t (mean)” value is listed as 13,288.1 ng⋅h/mL.
